Structures can show the parent of a compound that is named as a salt. *1 amine or outer side, *2 acyl side, *3 side chain or, on linkers, in order; H or OH if unused. Where a SMILES comes first, the peptide text is derived from it. [ ]: non-standard residue; d: D form. The star is where a group is joined. ACHPA = O=C(C[C@H](O)[C@H](CC1CCCCC1)N[*:1])[*:2]; Carboxymethyl = O=C(O)C*; X1 = O=C(C*)OCc1ccccc1; Boc = CC(C)(C)OC(=O)*
Molecular target: HIV protease (Human immunodeficiency virus type 1 group M subtype B, UniProt P03366)
Experiment: biochemical
Method: Recombinant HIV Protease HPLC Assay:
The enzyme was stored as 10 μL aliquots at -70° C. The aliquots were diluted to 1/10th of the original concentration with buffer prior to use (enzyme working solution).
The substrate was made into 10 mM stock in DMSO and stored at -20° C. Prior to use, the stock was diluted with buffer to give a 400 μM solution substrate working solution.
Buffer: 2-(4-Morpholino)ethanesulfonic acid (50 mM), NaCl (25 mM) and EDTA (5 mM) was dissolved in distilled H2 O (90 mL) and the solution was adjusted to pH6 with concentrated aqueous NaOH. The latter solution was diluted to 100 mL with H2 O to give the buffer.
(2) The assay mixture was prepared by mixing 10 μL of the substrate working solution, 0.5 μL of the solution of the test compound in DMSO from step 1, and 10 μL of the enzyme working solution. (3) The assay mixture was incubated at 37° C. for 1 h. (4) The reaction was quenched by adding 100 μL of 2% aqueous TFA. […] Elution was monitored at 210 nm. (6) A control which was the assay mixture without the test compound, was subjected simultaneously to steps 3 to 5.
Inhibition Studies: Cleavage products and remaining parent substrate were quantified by either peak height or by integration of the appropriate HPLC peaks. Substrate conversion was calculated using the following relationship: [formula] Enzyme inhibition of the test compound was calculated as follows: [formula]
The percent inhibition of the enzyme was determined for a minimum of three different concentrations of the test compound. Thereafter, the IC50 was determined graphically by plotting the percent inhibition of the substrate against the concentration of the test compound.

Row | SMILES | IC50 [nM]
1 | CC(C)C[C@H](NC(=O)C[C@H](O)[C@H](CC1CCCCC1)NC(=O)[C@H](Cc1ccccc1)NC(=O)[C@H](Cc1ccc(OCC(=O)O)cc1)NC(=O)OC(C)(C)C)C(=O)N[C@@H](Cc1ccccc1)C(N)=O [Example 5, Boc-Tyr(O-AcOH)-Phe-ACHPA-Leu-Phe-NH2] (Boc-Y(Carboxymethyl)F[ACHPA]LF-NH2) | 1000
2 | CC(C)C[C@H](NC(=O)C[C@H](O)[C@H](CC1CCCCC1)NC(=O)[C@@H](NC(=O)[C@H](Cc1ccc(OCC(=O)O)cc1)NC(=O)OC(C)(C)C)C(C)C)C(=O)N[C@@H](Cc1ccccc1)C(N)=O [Example 3, Boc-Tyr(O-AcOH)-Val-ACHPA-Leu-Phe-NH2] (Boc-Y(Carboxymethyl)V[ACHPA]LF-NH2) | 52
3 | CC(C)C[C@H](NC(=O)C[C@H](O)[C@H](CC1CCCCC1)NC(=O)[C@@H](NC(=O)[C@H](Cc1ccc(OCC(=O)OCc2ccccc2)cc1)NC(=O)OC(C)(C)C)C(C)C)C(=O)N[C@@H](Cc1ccccc1)C(N)=O [Example 1] | 70
4 | CC(C)C[C@H](NC(=O)C[C@H](O)[C@H](CC1CCCCC1)NC(=O)[C@@H](NC(=O)[C@@H](N)Cc1ccc(OCC(=O)OCc2ccccc2)cc1)C(C)C)C(=O)N[C@@H](Cc1ccccc1)C(N)=O [Example 2, H-Tyr(O-AcOBzl)-Val-ACHPA-Leu-Phe-NH2.HCl] (H-Y(X1)V[ACHPA]LF-NH2) | 5
5 | CC(C)C[C@H](NC(=O)C[C@H](O)[C@H](CC1CCCCC1)NC(=O)[C@@H](NC(=O)[C@@H](N)Cc1ccc(OCC(=O)O)cc1)C(C)C)C(=O)N[C@@H](Cc1ccccc1)C(N)=O [Example 4, H-Tyr(O-AcOH)-Val-ACHPA-Leu-Phe-NH2.HCl] (H-Y(Carboxymethyl)V[ACHPA]LF-NH2) | 10
